Data from ChEMBL document CHEMBL1201862, “PubChem BioAssay data set” (2004).
Activity calls are given as the source filed them.

How the values were obtained:
[1] = Luminescence Cell-Based Dose Confirmation HTS to Identify Activators of 5'UTR Stem-Loop Driven Alpha-Synuclein mRNA Translation in H4 Neuroglioblastoma Cells. [Related pubchem assays: 1829 (Project Summary), 1814 (Primary HTS)]; type: functional
[2] = Luminescence Cell-Based Dose Response HTS to Identify Activators of Luciferase Translation or Activity in H4 […] Cells. [Related pubchem assays: 1829 (Project Summary), 1814 (Primary HTS)]; type: functional
[3] = system: H4; assay: Luminescence Cell-Based Dose Response HTS to Identify Activators of 5'UTR Stem-Loop Driven Prion Protein mRNA Translation in H4 Neuroglioblastoma Cells. [Related pubchem assays: 1829 (Project Summary), 1814 (Primary HTS)]; type: functional; details: Homo sapiens
[4] = biological target: T1, DNA repair and recombination protein RAD54-like (Homo sapiens, UniProt Q92698); assay: inhibitors of human RAD54 branch migration, confirmation, biochemical, fluorescence, cherry-picked samples, dose series (AID 651657); type: functional
T1 sequence (Q92698 whole entry): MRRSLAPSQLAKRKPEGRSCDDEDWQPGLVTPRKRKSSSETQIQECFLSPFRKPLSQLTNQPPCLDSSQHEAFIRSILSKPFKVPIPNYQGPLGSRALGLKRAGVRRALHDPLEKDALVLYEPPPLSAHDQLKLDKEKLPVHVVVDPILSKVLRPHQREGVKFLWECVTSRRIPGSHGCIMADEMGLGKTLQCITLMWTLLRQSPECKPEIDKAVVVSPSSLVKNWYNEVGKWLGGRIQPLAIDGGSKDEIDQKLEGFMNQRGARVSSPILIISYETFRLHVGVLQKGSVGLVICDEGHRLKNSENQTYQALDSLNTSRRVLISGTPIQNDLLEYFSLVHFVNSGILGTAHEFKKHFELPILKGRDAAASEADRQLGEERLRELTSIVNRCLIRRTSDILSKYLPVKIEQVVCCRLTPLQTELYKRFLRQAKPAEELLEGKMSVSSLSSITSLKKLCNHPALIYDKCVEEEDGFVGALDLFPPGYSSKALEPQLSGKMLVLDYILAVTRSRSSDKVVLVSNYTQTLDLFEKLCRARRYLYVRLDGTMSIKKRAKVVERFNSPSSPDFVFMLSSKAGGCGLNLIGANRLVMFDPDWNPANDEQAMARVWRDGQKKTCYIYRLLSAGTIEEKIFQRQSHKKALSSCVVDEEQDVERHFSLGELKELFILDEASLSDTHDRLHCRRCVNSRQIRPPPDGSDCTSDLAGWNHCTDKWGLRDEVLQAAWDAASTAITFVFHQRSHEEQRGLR

[5] = biological target: Cytochrome P450 3A4 (Homo sapiens, UniProt P08684); details: Potency;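 further: confirmatory qHTS run detecting inhibitors and substrates of CYP3A4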
[6] = ZM109 Env clade C HIV-1 fusion inhibitors, dose response, HeLa effector, CEM target cells, luciferase, cherry-pick (AID 652058); type: functional, cell-based
[7] = inhibitors of HIV Env-driven cell fusion, dose response, cherry-pick (AID 652057); type: functional, cell-based
[8] = off-target signal loss in HeLa-CEM21 co-culture – HeLa F-luc CTL cells, cherry-picked, counter-screen for HIV-1 Env fusion inhibitor project, dose response (AID 652040); type: functional, cell-based;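 further: potency for signal decrease marking cytotoxic or nonspecific inhibition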
[9] = inhibitors of clade B AD8 Env fusion, dose response, cell-based, cherry-pick (AID 652062); type: functional;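 further: luciferase signal from cell-cell fusion driven by HIV-1 clade B AD8 Env; potency is for inhibitors of fusion seen as a drop in luminescence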
[10] = LGR2 antagonists, dose response, cell-based, HEK293, CRE-luciferase reporter, cherry pick, set 2 (AID 743343); type: functional;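 further: transfected cells were stimulated with diluted bursicon conditioned medium after compound addition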
[11] = MC4R antagonists, dose response, counter-screen for LGR2 antagonist project, cell-based, plate reader, cherry pick (AID 743444); type: functional;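 further: transfected HEK 293 cells stimulated with alpha-MSH peptide; potency of inhibitors of the alpha-MSH evoked signal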
[12] = A549 cell cytotoxicity, dose response, cytotoxicity control, plate reader, cherry-pick, antagonist series (AID 743412); type: functional, cell-based
[13] = biological target: T2, Ubiquitin-conjugating enzyme E2 N (Homo sapiens, UniProt P61088); type: functional;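 further: Dose-response confirmation in a TR-FRET assay detecting UBC13-driven polyubiquitin chain formation, inhibition measured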
T2 sequence (P61088 whole entry): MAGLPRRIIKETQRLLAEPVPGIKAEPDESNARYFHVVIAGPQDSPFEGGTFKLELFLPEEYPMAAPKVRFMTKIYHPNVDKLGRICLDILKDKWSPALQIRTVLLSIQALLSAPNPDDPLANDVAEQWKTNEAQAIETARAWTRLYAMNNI

[14] = system: Streptococcus; assay: Group A Streptococcus viability loss, dose response, counter-screen for streptokinase expression inhibitor project, luminescence, BacTiterGlo (AID 1915); type: functional, organism-based;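 further: potency for reduction of bacterial viability or growth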
[15] = biological target: T3, Corticotropin-releasing factor receptor 2/Corticotropin-releasing factor-binding protein (Homo sapiens, UniProt P24387+Q13324); assay: activators of CRF receptor 2 with binding protein – uHTS hits, confirmation (AID 602473); type: functional; details: read-out: EC50_Mean
T3 sequence (Q13324 whole entry): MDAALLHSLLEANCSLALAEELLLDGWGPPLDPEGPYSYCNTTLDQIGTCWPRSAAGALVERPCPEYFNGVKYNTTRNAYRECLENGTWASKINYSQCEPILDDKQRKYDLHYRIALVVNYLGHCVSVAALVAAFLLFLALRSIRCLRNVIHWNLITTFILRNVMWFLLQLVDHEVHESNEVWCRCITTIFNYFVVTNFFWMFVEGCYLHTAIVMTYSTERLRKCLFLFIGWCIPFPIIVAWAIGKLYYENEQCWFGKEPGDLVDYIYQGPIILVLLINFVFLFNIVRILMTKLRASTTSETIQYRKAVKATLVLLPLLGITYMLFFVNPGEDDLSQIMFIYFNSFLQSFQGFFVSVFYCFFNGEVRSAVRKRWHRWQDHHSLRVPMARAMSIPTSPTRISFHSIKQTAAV
T3 sequence (P24387 whole entry): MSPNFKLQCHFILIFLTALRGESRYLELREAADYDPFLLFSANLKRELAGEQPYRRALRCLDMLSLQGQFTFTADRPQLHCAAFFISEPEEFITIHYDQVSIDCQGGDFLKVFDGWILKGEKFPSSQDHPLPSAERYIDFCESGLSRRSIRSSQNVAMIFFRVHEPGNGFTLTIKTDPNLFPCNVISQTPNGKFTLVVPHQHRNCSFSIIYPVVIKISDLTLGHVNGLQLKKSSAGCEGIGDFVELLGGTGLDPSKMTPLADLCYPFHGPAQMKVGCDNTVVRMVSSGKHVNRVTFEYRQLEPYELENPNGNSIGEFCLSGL

[16] = system: Streptococcus sp. 'group A'; assay: growth inhibition of control SK(-) GAS strain, dose response, counter-screen for streptokinase expression inhibitor project, luminescence, kanamycin, BacTiterGlo, confirmation (AID 1900); type: functional, organism-based
[17] = Luminescence Cell-Based Dose Retest to Confirm Inhibitors of Cancer Stem Cells. [Related pubchem assays (depositor defined):AID2717, AID2721]; type: functional; details: Homo sapiens
[18] = THP-1 cell cytotoxicity, dose response, cytotoxicity control for non-replicating M. tuberculosis project (AID 489025); type: functional
[19] = cells; type: functional
[20] = microbe, parasite or virus in culture; type: functional; details: Mycobacterium tuberculosis
[21] = biological target: T4, Trace amine-associated receptor 1 (Homo sapiens, UniProt Q96RJ0); assay: Fluorescence-based cell-based high throughput dose response assay to identify agonists of the human trace amine associated receptor 1 (TAAR1).; type: functional
T4 sequence (Q96RJ0 whole entry): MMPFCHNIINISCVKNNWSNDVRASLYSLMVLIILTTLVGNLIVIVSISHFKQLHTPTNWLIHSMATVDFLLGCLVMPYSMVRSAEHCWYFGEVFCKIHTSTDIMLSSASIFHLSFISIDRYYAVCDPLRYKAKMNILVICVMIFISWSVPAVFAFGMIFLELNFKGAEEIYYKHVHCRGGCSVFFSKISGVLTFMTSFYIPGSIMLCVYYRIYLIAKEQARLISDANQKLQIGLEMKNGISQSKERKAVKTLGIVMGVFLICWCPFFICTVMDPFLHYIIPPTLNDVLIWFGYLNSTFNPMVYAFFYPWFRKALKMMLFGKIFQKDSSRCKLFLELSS

[22] = cells; type: functional, cell-based
[23] = cells; type: functional, cell-based; remark: listed apart in the source
[24] = biological target: T4, Trace amine-associated receptor 1; assay: Counterscreen for agonists of the human trace amine associated receptor 1 (hTAAR1): Fluorescence-based cell-based high throughput dose response assay to identify hTAAR1 agonist that also desensitize TAAR1 receptor response.; type: functional
[25] = IGROV1 ovarian cancer cell cytotoxicity, dose response, PAX8 inhibitor project, plate reader, dry powder samples (AID 743043); type: functional, cell-based; details: IGROV-1
[26] = cytotoxicity in OVCAR8 ovarian cancer cells, dose response, PAX8 project, cell-based, plate reader, dry powder samples (AID 743197); type: functional; details: OVCAR-8
[27] = NIH:OVCAR-3 ovarian cancer cell cytotoxicity, dose response, PAX8 inhibitor project, plate reader, dry powder samples (AID 743044); type: functional, cell-based
[28] = biological target: Paired box protein Pax-8 (Homo sapiens, UniProt Q06710); assay: inhibitors of PAX8-driven TPO luciferase reporter, dose response, RMG-I cells, cherry-pick (AID 687027); type: functional, cell-based;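 further: luciferase reporter driven by Pax8 target thyroperoxidase promoter measured by SteadyGlo luminescence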
Paired box protein Pax-8, sequence (Q06710 whole entry): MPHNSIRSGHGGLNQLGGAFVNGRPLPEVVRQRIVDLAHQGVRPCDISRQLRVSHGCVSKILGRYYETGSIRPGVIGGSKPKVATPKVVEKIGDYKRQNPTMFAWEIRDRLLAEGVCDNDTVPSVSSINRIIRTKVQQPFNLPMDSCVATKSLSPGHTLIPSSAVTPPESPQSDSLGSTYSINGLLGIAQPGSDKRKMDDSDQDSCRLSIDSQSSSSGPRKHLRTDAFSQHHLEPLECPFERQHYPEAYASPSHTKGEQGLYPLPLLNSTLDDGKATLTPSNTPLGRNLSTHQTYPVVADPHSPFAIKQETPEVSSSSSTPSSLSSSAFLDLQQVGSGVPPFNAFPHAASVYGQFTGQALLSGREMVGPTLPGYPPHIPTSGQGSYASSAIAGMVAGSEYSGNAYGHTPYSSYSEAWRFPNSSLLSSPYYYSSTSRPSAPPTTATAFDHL

Cytochrome P450 3A4, sequence (P08684 whole entry, the tested form may be a part): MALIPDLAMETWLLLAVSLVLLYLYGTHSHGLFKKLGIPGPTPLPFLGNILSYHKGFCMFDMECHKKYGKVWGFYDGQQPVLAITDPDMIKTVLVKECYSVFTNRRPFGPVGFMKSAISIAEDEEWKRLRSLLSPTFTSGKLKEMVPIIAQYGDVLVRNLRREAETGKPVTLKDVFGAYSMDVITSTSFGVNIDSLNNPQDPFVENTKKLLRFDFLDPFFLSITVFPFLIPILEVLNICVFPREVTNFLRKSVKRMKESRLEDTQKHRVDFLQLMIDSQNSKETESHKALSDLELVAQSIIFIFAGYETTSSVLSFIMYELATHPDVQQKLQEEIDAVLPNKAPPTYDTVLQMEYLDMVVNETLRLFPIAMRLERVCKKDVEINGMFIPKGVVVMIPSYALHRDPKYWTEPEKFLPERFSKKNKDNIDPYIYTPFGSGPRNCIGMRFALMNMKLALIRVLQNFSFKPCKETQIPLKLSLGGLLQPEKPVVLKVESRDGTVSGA

In the case of CCN(CC)CCCNC(=O)c1ccc2c3n(nc2c1)-c1ccc(Cl)cc1CO3, the EC50 [1] is reported as 101 µM (active), the EC50 [2] is reported as 3.59 µM (active) and the EC50 [3] is reported as 0.334 µM (active). For the same molecule, the AC50 [4] was 44.5 µM (active).
With COc1cc2cc[n+]3cc4c(OC)c(OC)ccc4cc3c2cc1OC the AC50 [5] was 20 µM (inconclusive).
In the case of CCN1C(=O)[C@H]2[C@@H](c3ccc(C)cc3)N3C(=O)N(c4cccc(Br)c4)C(=O)[C@@]3(CC)[C@H]2C1=O, the AC50 [6] is reported as 3.01 µM (active), the AC50 [7] is reported as 4.44 µM (active) and the AC50 [8] is reported as 6.04 µM (active). For the same molecule, the AC50 [9] was 1.18 µM (active).
In the case of COC1=CC(=O)OC(CCc2ccccc2)C1 (centres undefined), the AC50 [5] is reported as 12.6 µM (inconclusive).
For COCCOc1cc(NCc2ccccc2)c2ncn(C(C)C)c2c1, the AC50 [10] was 12 µM (active), the AC50 [11] was 17.9 µM (active) and the AC50 [12] was 44.3 µM (active).
With CCN(CC)CCNC(=O)c1cc2c(=O)n(C)c3ccccc3c2s1 the AC50 [4] was 19.6 µM (active) and the IC50 [13] was > 20 µM (inactive).
With O=C(Nc1nnc(-c2ccc(Cl)cc2)o1)c1nc2ccccc2s1 the EC50 [14] was 0.936 µM (active), the EC50 [15] was 2.26 µM (active) and the EC50 [16] was 0.289 µM (active). The AC50 [17] was 3.56 µM (active), the CC50 [18] was > 40 µM (active) and the IC50 [19] was 1.5 µM (active).
With CC(C)N1C(=O)NC(=O)C2(Cc3cc([N+](=O)[O-])ccc3N(C)C2c2ccccc2)C1=O (centres undefined) the CC50 [20] was > 40 µM (active), the CC50 [18] was > 40 µM (active) and the IC50 [19] was 27.3 µM (active).
For Cc1nnc(SCc2nc3ccccc3c(=O)n2-c2ccccc2Cl)n1N, the AC50 [6] was 4.98 µM (active), the AC50 [7] was 4.45 µM (active) and the AC50 [8] was 4.79 µM (active). The AC50 [9] was 10.2 µM (active).
In the case of COc1ccc(-c2cc(=O)c3c(O)c(OC)c(OC)c(OC)c3o2)cc1OC [5-DEMETHYLNOBILETIN], the AC50 [5] is reported as 10 µM (inconclusive).
With Nc1c(NCCc2ccccc2)c2ccccc2oc1=O the EC50 [21] was 1.86 µM (active), the IC50 [22] was > 29.9 µM (inactive) and the EC50 [23] was > 29.9 µM (inactive). For the same molecule, the IC50 [24] was 6.4 µM (active).
With C[C@@H]1CN([C@H](C)CO)C(=O)c2cc(NC(=O)Nc3ccc(C(F)(F)F)cc3)ccc2O[C@@H](C)CCCCO[C@@H]1CN(C)Cc1ccc2c(c1)OCO2 the AC50 [25] was 28.4 µM (active), the AC50 [26] was 26.4 µM (active) and the AC50 [27] was 25.1 µM (active). The AC50 [28] was 5.56 µM (active).
In the case of CCOC(=O)CNC(=O)CNC(=O)c1nn(-c2ccc(OC)c(Cl)c2)c(=O)c2ccccc12, the CC50 [18] is reported as > 40 µM (active) and the IC50 [19] is reported as 17.8 µM (active).
